The results in this text go back to US11053213B2, “Pharmaceutical compounds” (ALMAC DISCOVERY LIMITED, priority 2016, dated 2021).

Each structure is given as a SMILES string.

Chain of USP19 (O94966 whole entry): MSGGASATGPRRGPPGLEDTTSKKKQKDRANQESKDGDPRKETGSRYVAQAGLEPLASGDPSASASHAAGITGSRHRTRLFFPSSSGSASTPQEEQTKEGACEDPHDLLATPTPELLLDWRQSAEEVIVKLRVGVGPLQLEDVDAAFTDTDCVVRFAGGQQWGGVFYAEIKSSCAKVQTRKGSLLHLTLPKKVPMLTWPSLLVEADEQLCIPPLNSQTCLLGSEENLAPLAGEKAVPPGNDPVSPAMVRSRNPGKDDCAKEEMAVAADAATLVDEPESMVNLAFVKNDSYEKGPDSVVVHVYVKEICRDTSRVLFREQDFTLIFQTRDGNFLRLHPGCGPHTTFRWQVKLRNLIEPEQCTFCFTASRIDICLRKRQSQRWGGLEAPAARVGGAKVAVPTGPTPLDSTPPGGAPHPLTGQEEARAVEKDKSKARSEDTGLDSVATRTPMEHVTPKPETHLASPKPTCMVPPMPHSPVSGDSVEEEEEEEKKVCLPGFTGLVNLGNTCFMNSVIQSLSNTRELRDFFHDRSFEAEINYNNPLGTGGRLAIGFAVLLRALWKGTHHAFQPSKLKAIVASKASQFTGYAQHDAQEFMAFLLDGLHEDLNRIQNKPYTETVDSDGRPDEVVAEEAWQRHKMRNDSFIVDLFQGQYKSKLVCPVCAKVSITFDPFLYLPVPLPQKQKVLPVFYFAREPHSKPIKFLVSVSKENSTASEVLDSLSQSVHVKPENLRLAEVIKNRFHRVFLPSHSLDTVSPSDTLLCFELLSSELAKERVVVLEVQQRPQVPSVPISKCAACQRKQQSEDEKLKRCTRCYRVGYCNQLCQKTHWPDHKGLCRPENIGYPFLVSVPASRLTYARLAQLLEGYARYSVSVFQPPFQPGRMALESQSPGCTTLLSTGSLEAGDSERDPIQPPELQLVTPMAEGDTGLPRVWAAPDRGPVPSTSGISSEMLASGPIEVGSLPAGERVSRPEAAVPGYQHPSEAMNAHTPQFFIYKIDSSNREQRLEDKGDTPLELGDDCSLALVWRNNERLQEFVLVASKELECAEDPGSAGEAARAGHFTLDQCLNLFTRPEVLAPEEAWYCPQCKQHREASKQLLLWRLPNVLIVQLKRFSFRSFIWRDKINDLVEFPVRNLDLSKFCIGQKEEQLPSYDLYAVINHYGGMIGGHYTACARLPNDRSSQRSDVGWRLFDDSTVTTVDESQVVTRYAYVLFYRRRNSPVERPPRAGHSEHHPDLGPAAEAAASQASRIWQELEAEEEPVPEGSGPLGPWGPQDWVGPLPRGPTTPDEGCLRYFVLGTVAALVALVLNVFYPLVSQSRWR

For the assay, the target named is USP19 (Homo sapiens (Human), UniProt O94966). Description: USP19 activity assay (fluorescence polarisation, Ubiquitin-Lys-TAMRA substrate). It counts as biochemical. As to conditions: full-length USP19 2.5 nM, 30 min pre-incubation, Ub substrate 500 nM; average of at least two duplicate experiments. The protocol:
Unless otherwise stated, all other reagents were purchased from Sigma. Enzymatic reactions were conducted in black flat bottom polystyrene 384-well plates (Nunc) and 30 μL total volume. […] Inhibitors were stored as 10 mM DMSO stocks in an inert environment (low humidity, dark, low oxygen, room temperature) using the Storage Pod System and serial dilutions were prepared in buffer just prior to the assay (from 200 μM to 2 pM, 8-18 data point curve). Following incubation at RT for 30 min, the enzymatic reactions were initiated by dispensing the Ub substrate (500 nM, 10 μL). FP was measured every 15 min over a period of 90 min (within the linear range of the assay) using a Synergy 4 plate reader (BioTek) exciting at 530 nm and measuring the amount of parallel and perpendicular light at 575 nm. The FP signal was subsequently normalised to the no compound control.
In general terms: Fluorescence polarisation rises when a labelled molecule tumbles more slowly, as on binding a larger partner.
On to `C[C@H](CC1CC1)C(=O)N1CCC(O)(Cn2cc(C(=O)N(C)C)c(-c3ccccc3)cc2=O)C2(CCCC2)C1` (stereo partly drawn) [Example 149, 1-((7-((R)-3-Cyclopropyl-2-methylpropanoyl)-10-hydroxy-7-azaspiro[4.5]decan-10-yl)methyl)-N,N-dimethyl-6-oxo-4-phenyl-1,6-dihydropyridine-3-carboxamide], for which the IC50 (commonly the concentration needed to halve the response being measured) is less than 0.5 µM.
As to `CN(C)C(=O)c1cn(CC2(O)CCN(C(=O)C(O)CC3CCCCC3)CC23CCCC3)c(=O)cc1-c1ccccc1` (centres unmarked) [Example 157, 1-((7-(3-Cyclohexyl-2-hydroxypropanoyl)-10-hydroxy-7-azaspiro[4.5]decan-10-yl)methyl)-N,N-dimethyl-6-oxo-4-phenyl-1,6-dihydropyridine-3-carboxamide], the IC50 is less than 0.5 µM.
The same measure for `CN(C)C(=O)c1cn(CC2(O)CCN(C(=O)C[C@H](c3ccccc3)C(F)F)CC23CCCC3)c(=O)cc1-c1ccccc1` (stereo partly drawn) [Example 181, 1-((7-((R)-4,4-Difluoro-3-phenylbutanoyl)-10-hydroxy-7-azaspiro[4.5]decan-10-yl)methyl)-N,N-dimethyl-6-oxo-4-phenyl-1,6-dihydropyridine-3-carboxamide]: 0.5 to 5 µM; for `C[C@H](CC(F)(F)F)C(=O)N1CC[C@@](O)(Cn2cc(C(=O)N3CCN(C)CC3)c(-c3ccccc3)cc2=O)C2(CCCC2)C1` [Example 251, 1-(((S)-10-Hydroxy-7-((R)-4,4,4-trifluoro-2-methylbutanoyl)-7-azaspiro[4.5]decan-10-yl)methyl)-5-(4-methylpiperazine-1-carbonyl)-4-phenylpyridin-2(1H)-one]: less than 0.5 µM; for `C[C@H](CC(=O)N1CCC(O)(Cn2cc(-c3cncnc3)c(-c3ccccc3)cc2=O)CC1)c1ccccc1` [Example 103, (R)-1-((4-Hydroxy-1-(3-phenylbutanoyl)piperidin-4-yl)methyl)-4-phenyl-5-(pyrimidin-5-yl)pyridin-2(1H)-one]: 5 to 50 µM.
The same measure for `CN(C)C(=O)c1cn(CC2(O)CCN(C(=O)[C@@H]3C[C@@H]3c3ccccc3)CC23CCCC3)c(=O)cc1-c1ccccc1` (stereo partly drawn) [Example 174, 1-((10-Hydroxy-7-((1R,2S)-2-phenylcyclopropane-1-carbonyl)-7-azaspiro[4.5]decan-10-yl)methyl)-N,N-dimethyl-6-oxo-4-phenyl-1,6-dihydropyridine-3-carboxamide]: less than 0.5 µM; for `CCN(CC)C(=O)c1cn(CC2(O)CCN(C(=O)C[C@@H](C)c3ccccc3)CC2)c(=O)cc1-c1ccccc1` [Example 75, (R)—N,N-Diethyl-1-((4-hydroxy-1-(3-phenylbutanoyl)piperidin-4-yl)methyl)-6-oxo-4-phenyl-1,6-dihydropyridine-3-carboxamide]: 0.5 to 5 µM; for `C[C@H](CC(=O)N1CCC(O)(Cn2cc(C(=O)NCCO)c(-c3ccccc3)cc2=O)CC1)c1ccccc1` [Example 115, (R)-1-((4-Hydroxy-1-(3-phenylbutanoyl)piperidin-4-yl)methyl)-N-(2-hydroxyethyl)-6-oxo-4-phenyl-1,6-dihydropyridine-3-carboxamide]: 5 to 50 µM.
With `COc1cc(=O)n(CC2(O)CCN(C(=O)[C@H](C)CC3CCCCC3)CC23CCCC3)cc1C(=O)N(C)C` (stereo partly drawn) [Example 242, 1-((7-((R)-3-Cyclohexyl-2-methylpropanoyl)-10-hydroxy-7-azaspiro[4.5]decan-10-yl)methyl)-4-methoxy-N,N-dimethyl-6-oxo-1,6-dihydropyridine-3-carboxamide], the IC50 fell in the range of 0.5 to 5 µM.
On to `CC[C@@H](C)C(=O)N1CCC(O)(Cn2cc(C(=O)N(C)C)c(-c3ccccc3)cc2=O)C2(CCCC2)C1` (stereo partly drawn) [Example 148, 1-((10-Hydroxy-7-((R)-2-methylbutanoyl)-7-azaspiro[4.5]decan-10-yl)methyl)-N,N-dimethyl-6-oxo-4-phenyl-1,6-dihydropyridine-3-carboxamide], for which the IC50 lay within 5 to 50 µM.
The same measure for `CCCCC(CC)C(=O)N1CCC(O)(Cn2cc(C(=O)N(C)C(C)C)c(-c3ccccc3)cc2=O)CC1` (racemic) [Example 80, (R,S)-1-((1-(2-Ethylhexanoyl)-4-hydroxypiperidin-4-yl)methyl)-N-isopropyl-N-methyl-6-oxo-4-phenyl-1,6-dihydropyridine-3-carboxamide]: 5 to 50 µM.
The figure for `CN(C)C(=O)c1cn(CC2(O)CCN(C(=O)c3cccn3Cc3ccccc3)CC23CCCC3)c(=O)cc1-c1ccccc1` (centres unmarked) [Example 198, 1-((7-(1-Benzyl-1H-pyrrole-2-carbonyl)-10-hydroxy-7-azaspiro[4.5]decan-10-yl)methyl)-N,N-dimethyl-6-oxo-4-phenyl-1,6-dihydropyridine-3-carboxamide] is 5 to 50 µM; for `Cc1cn(CC2(O)CCN(C(=O)C[C@@H](C)c3ccccc3)CC2)c(=O)cc1-c1ccccc1` [Example 111, (R)-1-((4-Hydroxy-1-(3-phenylbutanoyl)piperidin-4-yl)methyl)-5-methyl-4-phenylpyridin-2(1H)-one] it is 50 to 250 µM; for `CN(C)C(=O)c1cn(CC2(O)CCN(C(=O)c3c[nH]nc3C3CCCCC3)CC23CCCC3)c(=O)cc1-c1ccccc1` (centres unmarked) [Example 189, 1-((7-(3-Cyclohexyl-1H-pyrazole-4-carbonyl)-10-hydroxy-7-azaspiro[4.5]decan-10-yl)methyl)-N,N-dimethyl-6-oxo-4-phenyl-1,6-dihydropyridine-3-carboxamide] it is 0.5 to 5 µM.
The same measure for `CC(C)N(C)C(=O)c1cn(CC2(O)CCN(C(=O)CCC3CCCCC3)CC2)c(=O)cc1-c1ccccc1` [Example 92, 1-((1-(3-Cyclohexylpropanoyl)-4-hydroxypiperidin-4-yl)methyl)-N-isopropyl-N-methyl-6-oxo-4-phenyl-1,6-dihydropyridine-3-carboxamide]: 0.5 to 5 µM; for `CN(C)C(=O)c1cn(CC2(O)CCN(C(=O)c3ncoc3C3CC3)CC23CCCC3)c(=O)cc1-c1ccccc1` (centres unmarked) [Example 193, 1-((7-(5-Cyclopropyloxazole-4-carbonyl)-10-hydroxy-7-azaspiro[4.5]decan-10-yl)methyl)-N,N-dimethyl-6-oxo-4-phenyl-1,6-dihydropyridine-3-carboxamide]: 5 to 50 µM; for `O=C(CCC1CCCCC1)N1C[C@H]2CC[C@@H](C1)C2(O)Cn1cnc(-c2ccccc2F)cc1=O` (stereo partly drawn) [Example 113, 3-(((1R,5S)-3-(3-Cyclohexylpropanoyl)-8-hydroxy-3-azabicyclo[3.2.1]octan-8-yl)methyl)-6-(2-fluorophenyl)pyrimidin-4(3H)-one]: 50 to 250 µM.
For the molecule `C=C(C)c1cc(=O)n(CC2(O)CCN(C(=O)C[C@@H](C)c3ccccc3)CC2)cc1-c1ccccc1` [Example 12, (R)-1-((4-Hydroxy-1-(3-phenylbutanoyl)piperidin-4-yl)methyl)-5-phenyl-4-(prop-1-en-2-yl)pyridine-2(1H)-one], the IC50 lay in the range of 5 to 50 µM.
The figure for `C[C@H](CC1CCCCC1)C(=O)N1CC[C@@](O)(Cn2cc(C(=O)N(C)C)c(-c3ccccc3)cc2=O)C(C)(C)C1` [Example 121, 1-(((S)-1-((R)-3-Cyclohexyl-2-methylpropanoyl)-4-hydroxy-3,3-dimethylpiperidin-4-yl)methyl)-N,N-dimethyl-6-oxo-4-phenyl-1,6-dihydropyridine-3-carboxamide] is less than 0.5 µM.
The figure for `CCOC(=O)c1cn(C[C@]2(O)CCN(C(=O)[C@H](C)CC3CCCCC3)CC23CCCC3)c(=O)cc1-c1ccccc1` [Example 252, Ethyl 1-(((S)-7-((R)-3-cyclohexyl-2-methylpropanoyl)-10-hydroxy-7-azaspiro[4.5]decan-10-yl)methyl)-6-oxo-4-phenyl-1,6-dihydropyridine-3-carboxylate] is less than 0.5 µM; for `CC(C)CNc1cc(=O)n(CC2(O)CCN(C(=O)C[C@@H](C)c3ccccc3)CC2)cn1` [Example 35, (R)-3-((4-Hydroxy-1-(3-phenylbutanoyl)piperidin-4-yl)methyl)-6-(isobutylamino)pyrimidin-4(3H)-one] it is 50 to 250 µM.
The same measure for `C=C(C)c1cc(=O)n(CC2(O)CCN(C(=O)C[C@@H](C)c3ccccc3)CC2)cn1` [Example 29, (R)-3-((4-Hydroxy-1-(3-phenylbutanoyl)piperidin-4-yl)methyl)-6-(prop-1-en-2-yl)pyrimidin-4(3H)-one]: 50 to 250 µM; for `CCC(C)(C)C(=O)N1CCC(O)(Cn2cc(C(=O)N(C)C(C)C)c(-c3ccccc3)cc2=O)CC1` [Example 84, 1-((1-(2,2-Dimethylbutanoyl)-4-hydroxypiperidin-4-yl)methyl)-N-isopropyl-N-methyl-6-oxo-4-phenyl-1,6-dihydropyridine-3-carboxamide]: 50 to 250 µM; for `C[C@H](CC(=O)N1CCC(O)(Cn2cc(-c3ccc(CN)cc3)c(-c3ccccc3)cc2=O)CC1)c1ccccc1` [Example 86, (R)-5-(4-(Aminomethyl)phenyl)-1-((4-hydroxy-1-(3-phenylbutanoyl)piperidin-4-yl)methyl)-4-phenylpyridin-2(1H)-one]: 5 to 50 µM.
In the case of `C[C@H](CC(=O)N1CCC(O)(Cn2cc(C(=O)NC3CCCCC3)c(-c3ccccc3)cc2=O)CC1)c1ccccc1` [Example 65, (R)—N-Cyclohexyl-1-((4-hydroxy-1-(3-phenylbutanoyl)piperidin-4-yl)methyl)-6-oxo-4-phenyl-1,6-dihydropyridine-3-carboxamide], the IC50 was 5 to 50 µM.
The same measure for `C[C@H](CC1CCCCC1)C(=O)N1CC[C@@](O)(Cn2cc(C(=O)N3CCNCC3)c(C3CC3)cc2=O)C2(CCCC2)C1` [Example 233, 1-(((S)-7-((R)-3-Cyclohexyl-2-methylpropanoyl)-10-hydroxy-7-azaspiro[4.5]decan-10-yl)methyl)-4-cyclopropyl-5-(piperazine-1-carbonyl)pyridin-2(1H)-one]: less than 0.5 µM.
